Three compounds from patent publication US10669284B2, “Fused thiazolopyrimidine derivatives as MNKS inhibitors” (LIFEARC, priority 2015, dated 2020) can be followed below.

Experiment [1] concerns the target FGFR3 (Homo sapiens, UniProt P22607). Put plainly: Kinase selectivity screen FGFR3. The settings on record: read-out: % inhibition of FGFR3.
In experiment [2] the target is T1, SGK1 (Homo sapiens, UniProt O00141).
T1 sequence (O00141 1-431): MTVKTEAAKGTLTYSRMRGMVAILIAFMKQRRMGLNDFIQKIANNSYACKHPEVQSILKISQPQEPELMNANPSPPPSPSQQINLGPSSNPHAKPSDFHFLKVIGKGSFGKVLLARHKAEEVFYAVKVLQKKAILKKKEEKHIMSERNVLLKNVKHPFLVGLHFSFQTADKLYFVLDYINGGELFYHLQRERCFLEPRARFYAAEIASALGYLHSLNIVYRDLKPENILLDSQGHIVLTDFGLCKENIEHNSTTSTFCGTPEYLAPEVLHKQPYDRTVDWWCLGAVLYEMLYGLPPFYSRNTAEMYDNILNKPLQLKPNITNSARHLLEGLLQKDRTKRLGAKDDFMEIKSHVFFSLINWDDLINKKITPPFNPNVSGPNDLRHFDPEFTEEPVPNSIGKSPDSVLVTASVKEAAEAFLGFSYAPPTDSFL
Put plainly: Kinase selectivity screen SGK1. The settings on record: read-out: % inhibition of SGK1.

The target of experiment [3] is CaMK1 (Homo sapiens, UniProt Q14012). Put plainly: Kinase selectivity screen CaMK1. Conditions: read-out: % inhibition of CaMK1.
In experiment [4] the target is MKNK2 (Homo sapiens, UniProt Q9HBH9). Put plainly: Kinase selectivity screen MKNK2. Conditions: 1 μM compound. In kind it is biochemical.
Experiment [5] addresses PIK3CG (Homo sapiens, UniProt P48736). Put plainly: Kinase selectivity screen PIK3CG. Conditions: read-out: % inhibition of PIK3CG.
Experiment [6] has as its target T2, EPHB4 (Homo sapiens, UniProt P54760).
T2 sequence (P54760 16-987): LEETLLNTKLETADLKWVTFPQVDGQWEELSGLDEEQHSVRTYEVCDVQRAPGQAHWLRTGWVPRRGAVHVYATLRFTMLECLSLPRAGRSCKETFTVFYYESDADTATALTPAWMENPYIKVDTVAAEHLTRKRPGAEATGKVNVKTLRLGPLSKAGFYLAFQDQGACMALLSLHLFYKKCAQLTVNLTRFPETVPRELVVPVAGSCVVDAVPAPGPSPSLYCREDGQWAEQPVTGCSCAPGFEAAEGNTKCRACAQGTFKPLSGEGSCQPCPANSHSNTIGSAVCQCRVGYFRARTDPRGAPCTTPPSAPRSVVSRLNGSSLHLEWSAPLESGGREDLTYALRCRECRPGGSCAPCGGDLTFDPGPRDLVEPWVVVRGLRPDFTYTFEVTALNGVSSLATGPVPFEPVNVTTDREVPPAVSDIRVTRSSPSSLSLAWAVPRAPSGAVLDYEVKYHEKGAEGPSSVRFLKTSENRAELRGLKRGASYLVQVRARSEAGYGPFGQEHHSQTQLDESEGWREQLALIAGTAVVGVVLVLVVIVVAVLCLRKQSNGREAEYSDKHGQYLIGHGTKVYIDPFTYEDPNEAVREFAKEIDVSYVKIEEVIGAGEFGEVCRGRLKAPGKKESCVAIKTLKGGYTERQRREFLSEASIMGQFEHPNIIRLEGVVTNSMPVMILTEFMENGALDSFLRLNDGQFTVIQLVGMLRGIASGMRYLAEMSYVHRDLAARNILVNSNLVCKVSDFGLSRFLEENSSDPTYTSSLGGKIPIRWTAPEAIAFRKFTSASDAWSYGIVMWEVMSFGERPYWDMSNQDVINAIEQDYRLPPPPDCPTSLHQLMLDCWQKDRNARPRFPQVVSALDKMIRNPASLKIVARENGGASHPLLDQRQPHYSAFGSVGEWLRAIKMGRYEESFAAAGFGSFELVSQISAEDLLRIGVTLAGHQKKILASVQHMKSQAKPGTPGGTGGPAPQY
Put plainly: Kinase selectivity screen EPHB4. Conditions: read-out: % inhibition of EPHB4.

Experiment [7] concerns the target FES (Homo sapiens, UniProt P07332). Put plainly: Kinase selectivity screen FES. Conditions: read-out: % inhibition of FES.
In experiment [8] the target is ROCK2 (Homo sapiens, UniProt O75116). Put plainly: Kinase selectivity screen ROCK2. The settings on record: read-out: % inhibition of ROCK2.
Experiment [9] has as its target T3, PRKCE (Homo sapiens, UniProt Q02156).
T3 sequence (Q02156 1-737): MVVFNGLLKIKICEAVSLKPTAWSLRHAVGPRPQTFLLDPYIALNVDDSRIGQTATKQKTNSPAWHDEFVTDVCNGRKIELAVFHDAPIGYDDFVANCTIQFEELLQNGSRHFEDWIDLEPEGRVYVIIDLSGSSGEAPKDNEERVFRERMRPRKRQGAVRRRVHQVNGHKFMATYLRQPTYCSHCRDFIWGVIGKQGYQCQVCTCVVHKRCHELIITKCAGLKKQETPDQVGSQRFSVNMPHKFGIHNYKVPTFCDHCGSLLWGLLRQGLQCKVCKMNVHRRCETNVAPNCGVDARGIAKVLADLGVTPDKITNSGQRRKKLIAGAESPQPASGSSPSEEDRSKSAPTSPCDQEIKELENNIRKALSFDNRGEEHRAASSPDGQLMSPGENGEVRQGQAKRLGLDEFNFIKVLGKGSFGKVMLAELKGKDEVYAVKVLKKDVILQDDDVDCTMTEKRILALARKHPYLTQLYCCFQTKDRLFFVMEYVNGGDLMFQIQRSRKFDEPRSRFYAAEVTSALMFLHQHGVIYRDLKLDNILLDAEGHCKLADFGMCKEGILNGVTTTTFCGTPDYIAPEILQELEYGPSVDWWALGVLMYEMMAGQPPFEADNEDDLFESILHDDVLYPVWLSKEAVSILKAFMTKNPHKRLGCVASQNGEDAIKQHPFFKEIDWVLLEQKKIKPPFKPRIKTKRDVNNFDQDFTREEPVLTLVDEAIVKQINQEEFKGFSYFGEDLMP
Put plainly: Kinase selectivity screen PRKCE. The settings on record: read-out: % inhibition of PRKCE.

FES, sequence (P07332 whole entry, species assumed): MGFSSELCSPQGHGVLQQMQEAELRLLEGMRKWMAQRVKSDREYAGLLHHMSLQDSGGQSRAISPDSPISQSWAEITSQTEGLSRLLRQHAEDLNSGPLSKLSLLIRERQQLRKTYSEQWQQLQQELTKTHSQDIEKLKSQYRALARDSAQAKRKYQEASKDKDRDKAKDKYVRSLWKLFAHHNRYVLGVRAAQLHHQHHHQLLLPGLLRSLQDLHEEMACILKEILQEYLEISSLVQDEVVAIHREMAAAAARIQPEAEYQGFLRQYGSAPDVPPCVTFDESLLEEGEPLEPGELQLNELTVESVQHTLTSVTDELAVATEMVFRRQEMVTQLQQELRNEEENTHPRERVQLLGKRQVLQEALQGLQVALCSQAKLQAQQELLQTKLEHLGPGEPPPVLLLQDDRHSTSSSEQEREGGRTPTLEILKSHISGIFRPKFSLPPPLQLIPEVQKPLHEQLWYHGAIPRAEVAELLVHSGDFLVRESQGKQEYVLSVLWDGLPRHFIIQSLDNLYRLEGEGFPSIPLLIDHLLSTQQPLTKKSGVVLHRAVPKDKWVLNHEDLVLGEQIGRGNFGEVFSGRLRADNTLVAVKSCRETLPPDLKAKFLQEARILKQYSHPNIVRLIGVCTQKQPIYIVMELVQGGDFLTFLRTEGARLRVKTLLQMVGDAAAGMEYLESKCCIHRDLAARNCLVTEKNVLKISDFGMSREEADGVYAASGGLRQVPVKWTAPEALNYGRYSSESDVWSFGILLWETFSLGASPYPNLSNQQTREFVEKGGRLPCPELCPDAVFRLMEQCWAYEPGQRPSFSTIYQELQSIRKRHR
ROCK2, sequence (O75116 whole entry, species assumed): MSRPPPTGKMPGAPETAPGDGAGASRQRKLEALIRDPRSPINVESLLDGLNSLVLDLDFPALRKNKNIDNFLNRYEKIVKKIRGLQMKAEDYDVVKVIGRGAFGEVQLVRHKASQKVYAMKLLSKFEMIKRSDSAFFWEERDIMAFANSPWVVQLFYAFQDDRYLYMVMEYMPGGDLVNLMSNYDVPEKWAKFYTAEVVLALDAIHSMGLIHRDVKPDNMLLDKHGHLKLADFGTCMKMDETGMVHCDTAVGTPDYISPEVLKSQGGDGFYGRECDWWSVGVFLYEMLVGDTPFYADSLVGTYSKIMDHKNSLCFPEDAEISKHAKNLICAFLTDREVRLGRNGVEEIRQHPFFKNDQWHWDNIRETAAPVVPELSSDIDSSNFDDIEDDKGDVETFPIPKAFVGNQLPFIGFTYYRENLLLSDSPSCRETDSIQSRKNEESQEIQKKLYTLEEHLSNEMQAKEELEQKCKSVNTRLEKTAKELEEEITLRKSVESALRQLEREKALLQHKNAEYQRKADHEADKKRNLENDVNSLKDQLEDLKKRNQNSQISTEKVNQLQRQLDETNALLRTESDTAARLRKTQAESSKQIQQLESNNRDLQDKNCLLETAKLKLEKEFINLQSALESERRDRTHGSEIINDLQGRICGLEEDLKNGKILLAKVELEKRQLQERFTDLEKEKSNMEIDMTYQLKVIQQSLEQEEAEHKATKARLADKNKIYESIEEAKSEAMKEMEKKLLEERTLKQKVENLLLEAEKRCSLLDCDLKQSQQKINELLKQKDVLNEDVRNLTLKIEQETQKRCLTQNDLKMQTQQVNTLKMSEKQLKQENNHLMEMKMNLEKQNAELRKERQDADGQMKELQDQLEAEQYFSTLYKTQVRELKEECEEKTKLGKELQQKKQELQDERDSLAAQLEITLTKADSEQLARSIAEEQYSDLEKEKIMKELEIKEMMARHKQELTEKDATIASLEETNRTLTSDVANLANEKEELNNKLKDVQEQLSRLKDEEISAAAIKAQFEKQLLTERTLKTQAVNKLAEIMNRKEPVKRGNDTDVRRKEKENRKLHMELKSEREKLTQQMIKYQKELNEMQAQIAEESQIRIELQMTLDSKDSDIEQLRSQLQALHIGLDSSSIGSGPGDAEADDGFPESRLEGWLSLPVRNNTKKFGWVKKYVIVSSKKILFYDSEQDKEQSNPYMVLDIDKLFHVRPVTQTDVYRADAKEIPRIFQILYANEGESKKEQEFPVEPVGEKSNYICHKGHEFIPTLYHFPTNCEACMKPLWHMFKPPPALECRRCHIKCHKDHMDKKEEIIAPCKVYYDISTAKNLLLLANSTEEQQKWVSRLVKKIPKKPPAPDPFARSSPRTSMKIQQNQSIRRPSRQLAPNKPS
FGFR3, sequence (P22607 23-806, species assumed): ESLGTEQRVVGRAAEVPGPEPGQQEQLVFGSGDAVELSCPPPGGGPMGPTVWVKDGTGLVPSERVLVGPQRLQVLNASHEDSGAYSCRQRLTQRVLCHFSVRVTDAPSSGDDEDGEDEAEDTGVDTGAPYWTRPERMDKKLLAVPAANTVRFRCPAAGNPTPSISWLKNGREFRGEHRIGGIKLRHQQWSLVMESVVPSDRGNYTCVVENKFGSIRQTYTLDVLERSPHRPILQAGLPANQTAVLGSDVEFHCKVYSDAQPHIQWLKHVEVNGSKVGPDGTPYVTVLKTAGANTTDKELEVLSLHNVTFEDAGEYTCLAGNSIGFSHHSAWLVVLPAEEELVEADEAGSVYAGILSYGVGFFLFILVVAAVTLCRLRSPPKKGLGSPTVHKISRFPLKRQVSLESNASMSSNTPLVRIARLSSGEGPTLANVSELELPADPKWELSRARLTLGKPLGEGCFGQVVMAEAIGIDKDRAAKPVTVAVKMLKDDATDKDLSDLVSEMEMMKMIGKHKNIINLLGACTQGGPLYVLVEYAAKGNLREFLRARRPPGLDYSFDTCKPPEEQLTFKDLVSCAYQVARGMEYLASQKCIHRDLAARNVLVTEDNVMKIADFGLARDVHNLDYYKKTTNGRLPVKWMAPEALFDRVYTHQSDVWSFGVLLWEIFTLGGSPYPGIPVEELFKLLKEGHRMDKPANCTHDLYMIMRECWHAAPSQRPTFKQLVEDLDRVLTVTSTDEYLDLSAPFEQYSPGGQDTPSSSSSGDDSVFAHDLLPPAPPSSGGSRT
PIK3CG, sequence (P48736 whole entry, species assumed): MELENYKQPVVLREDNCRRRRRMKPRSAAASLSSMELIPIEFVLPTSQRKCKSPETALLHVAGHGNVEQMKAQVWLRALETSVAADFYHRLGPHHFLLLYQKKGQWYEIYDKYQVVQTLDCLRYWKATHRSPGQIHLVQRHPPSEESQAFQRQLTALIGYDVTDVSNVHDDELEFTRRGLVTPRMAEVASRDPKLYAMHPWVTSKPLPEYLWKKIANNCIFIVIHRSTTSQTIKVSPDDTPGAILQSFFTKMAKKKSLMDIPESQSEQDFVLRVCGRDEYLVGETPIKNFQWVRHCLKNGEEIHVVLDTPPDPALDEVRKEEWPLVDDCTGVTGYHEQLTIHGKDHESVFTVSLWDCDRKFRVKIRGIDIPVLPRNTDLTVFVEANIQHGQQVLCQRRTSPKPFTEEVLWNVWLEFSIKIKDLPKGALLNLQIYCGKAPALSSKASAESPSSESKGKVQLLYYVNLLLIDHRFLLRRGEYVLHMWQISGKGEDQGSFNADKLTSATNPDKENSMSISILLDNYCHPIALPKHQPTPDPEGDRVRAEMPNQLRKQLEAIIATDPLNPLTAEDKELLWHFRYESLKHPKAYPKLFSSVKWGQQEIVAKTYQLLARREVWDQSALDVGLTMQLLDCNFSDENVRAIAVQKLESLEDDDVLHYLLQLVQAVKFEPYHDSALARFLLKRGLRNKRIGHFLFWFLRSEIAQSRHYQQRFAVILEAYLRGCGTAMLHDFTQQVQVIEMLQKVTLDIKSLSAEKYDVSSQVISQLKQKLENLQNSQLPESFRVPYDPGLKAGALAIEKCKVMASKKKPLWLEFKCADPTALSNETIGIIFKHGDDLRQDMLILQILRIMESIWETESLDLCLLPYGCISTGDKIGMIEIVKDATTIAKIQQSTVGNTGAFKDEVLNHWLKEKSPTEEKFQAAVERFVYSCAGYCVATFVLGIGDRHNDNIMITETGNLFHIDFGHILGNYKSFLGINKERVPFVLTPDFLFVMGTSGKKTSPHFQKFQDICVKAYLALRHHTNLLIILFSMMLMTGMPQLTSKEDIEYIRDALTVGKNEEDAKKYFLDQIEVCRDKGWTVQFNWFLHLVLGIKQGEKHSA
MKNK2, sequence (Q9HBH9 whole entry): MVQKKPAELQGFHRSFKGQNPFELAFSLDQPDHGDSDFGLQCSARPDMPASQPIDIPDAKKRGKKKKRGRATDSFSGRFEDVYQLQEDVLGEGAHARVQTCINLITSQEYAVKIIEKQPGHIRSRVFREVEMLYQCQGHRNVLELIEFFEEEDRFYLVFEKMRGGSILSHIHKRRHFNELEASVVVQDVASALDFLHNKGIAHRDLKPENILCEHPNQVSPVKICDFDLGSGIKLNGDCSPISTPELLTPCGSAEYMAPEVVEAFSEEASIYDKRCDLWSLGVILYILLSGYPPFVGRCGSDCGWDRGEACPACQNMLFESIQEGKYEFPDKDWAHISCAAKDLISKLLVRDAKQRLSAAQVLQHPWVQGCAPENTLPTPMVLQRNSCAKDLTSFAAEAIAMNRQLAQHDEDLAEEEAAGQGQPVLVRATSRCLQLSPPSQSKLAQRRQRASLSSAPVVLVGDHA
CaMK1, sequence (Q14012 whole entry): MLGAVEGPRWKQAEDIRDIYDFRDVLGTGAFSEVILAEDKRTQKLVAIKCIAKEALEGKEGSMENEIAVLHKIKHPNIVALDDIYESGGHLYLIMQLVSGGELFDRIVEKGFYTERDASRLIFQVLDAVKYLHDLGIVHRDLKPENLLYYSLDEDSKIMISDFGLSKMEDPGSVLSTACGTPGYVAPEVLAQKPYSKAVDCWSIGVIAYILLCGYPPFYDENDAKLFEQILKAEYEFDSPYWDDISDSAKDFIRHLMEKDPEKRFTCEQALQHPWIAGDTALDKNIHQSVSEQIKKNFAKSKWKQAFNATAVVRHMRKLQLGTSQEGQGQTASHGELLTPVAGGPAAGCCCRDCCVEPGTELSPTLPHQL

In the case of `O=C(NCC1CCNCC1)c1nc2c(N3CCc4cc(F)ccc43)ncnc2s1` [Example 58, 7-(5-fluoroindolin-1-yl)-N-(4-piperidylmethyl)thiazolo[5,4-d]pyrimidine-2-carboxamide], the inhibition at 1 µM was 0% in experiment [1]; 24% in experiment [2]; 11% in experiment [3]; 93% in experiment [4]; 0% in [5]; 0% in experiment [6]. Besides, the inhibition at 1 µM came out at 16% in [7], 8% in experiment [8] and 0% in [9].

Take `CC(C)Oc1cc(F)ccc1Nc1ncnc2sc(C(=O)NCC3CCNCC3)nc12` [Example 10, 7-(4-fluoro-2-isopropoxy-anilino)-N-(4-piperidylmethyl)thiazolo[5,4-d]pyrimidine-2-carboxamide]: the inhibition at 1 µM is 0% in experiment [1]; 14% in experiment [2]; 11% in [3]; 81% in experiment [4]; 6% in [5]; 4% in experiment [6]. The inhibition at 1 µM in experiment [7] was 13%; in [8], 1%; in experiment [9], 4%.

On to `CN(C)CCCNC(=O)c1nc2c(N3CCc4cc(F)ccc43)ncnc2s1` [Example 64, N-[3-(dimethylamino)propyl]-7-(5-fluoroindolin-1-yl)thiazolo[5,4-d]pyrimidine-2-carboxamide], for which the inhibition at 1 µM in experiment [1] worked out at 3%; in experiment [2], 41%; in [3] it was 18%; in experiment [4], 96%; in [5] it was 3%; in experiment [6], 8%. The inhibition at 1 µM amounted to 1% in [7], 18% in [8] and 0% in [9].
